Marks after values point to notes of the source that are not given here.
Experiment: 4% fat-corrected milk production in sorbitol feeding trials
Format: in vivo, Holstein cows
Excerpt: To convert a particular quantity (weight) of a milk sample to the quantity (weight) of Fat-Corrected Milk, based on a correction to a concentration of four weight percent fat, based on the total weight off the Fat-Corrected Milk, the following equation is employed: 4 wt % FCM=Original Milk Weight×(0.4+(0.15×% TFOM)) where: • the term 4 wt % FCM means the calculated weight of Fat-Corrected Milk, based on a correction to a concentration of four weight percent fat, based on the total weight of the Fat-Corrected Milk, • the term Original Milk Weight means the weight of the original milk sample that is being corrected to a four weight percent fat basis, and • % TFOM is the weight % total fat in the original milk sample, based on the total weight of the original milk sample. Each cow of each of the six different trials (Control Trial #1, Control Trial #2, Pre-Partum Trial #1, Pre-Partum Trial #2, Pre/Post Trial #1, and Pre/Post Trial #2) was milked three times daily and the weight of produced milk by each cow was recorded at each milking. The milk from each cow was sampled once per week (⅓ of the sample volume from each of the three milkings occurring on the weekly milk sampling day) and was analyzed for true protein, total fat, lactose, and total solids, as detailed in the property determination and characterization techniques presented above. Additionally, samples of blood were periodically obtained from each cow during the four trials (Control Trial 2, Pre-Partum Trial #2, Pre/Post Trial #1, and Pre/Post Trial #2) encompassed in Example Two and were analyzed for non-esterified fatty acid (NEFA) content as detailed in the property determination and characterization techniques presented above. No NEFA analysis was conducted on the cows employed in Control Trial #1 or Pre-Partum Trial #1 that are the subject of Example One. Example One includes Control Trial #1 and Pre-Partum Trial #1. Both primiparious cows and multiparious cows were included in Control Trial #1 and Pre-Partum Trial #1. Five primiparious cows and fifteen multiparious cows were included in Control Trial #1; likewise, five primiparious cows and fifteen multiparious cows were included in Pre-Partum Trial #1. All cows included in Control Trial #1 and Pre-Partum Trial #1 were Holsteins. Example Two includes Control Trial #2, Pre-Partum Trial #2, Pre/Post Trial #1, and Pre/Post Trial #2. Only multiparious, Holstein cows were included in Control Trial #2, Pre-Partum Trial #1, Pre/Post Trial #1, and Pre/Post Trial #2. Eighteen multiparious cows were included in both Control Trial #2 and Pre-Partum Trial #2, while sixteen multiparious cows were included in Pre/Post Trial #1 and seventeen multiparious cows were included in Pre/Post Trial #2.

OC[C@@H](O)[C@@H](O)[C@H](O)[C@@H](O)CO [sorbitol]
Milk Production (4.0% fat basis) (Pre-Partum Trial #1 (75/0/0 g/day in wk −3..−1/+1..+4/+5..+8), multiparious cows, weeks +1 through +8): 98.6 lbs/day | Milk Production (4.0% fat basis) (Pre-Partum Trial #1 (75/0/0 g/day in wk −3..−1/+1..+4/+5..+8), primiparious cows, weeks +1 through +8): 79.3 lbs/day | 4% fat-corrected milk production increase (Pre-Partum Trial #1 (75 g/day wk −3..−1 only) versus Control Trial #1, multiparious cows, weeks +1 through +8): 12.4% | increase in production of 4% fat-corrected milk (Pre-Partum Trial #1 (75 g/day wk −3..−1 only) versus Control Trial #1, primiparious cows, weeks +1 through +8): 7.6% | Milk Production (4.0% fat basis) (Pre-Partum Trial #2 (75/0/100 g/day in wk −3..−1/+1..+4/+5..+8), multiparious cows, week +1): 71.1^a lbs/day | Milk Production (4.0% fat basis) (Pre-Partum Trial #2 (75/0/100 g/day in wk −3..−1/+1..+4/+5..+8), multiparious cows, week +2): 100 lbs/day | Milk Production (4.0% fat basis) (Pre-Partum Trial #2 (75/0/100 g/day in wk −3..−1/+1..+4/+5..+8), multiparious cows, week +3): 104 lbs/day | Milk Production (4.0% fat basis) (Pre-Partum Trial #2 (75/0/100 g/day in wk −3..−1/+1..+4/+5..+8), multiparious cows, week +4): 101 lbs/day | Milk Production (4.0% fat basis) (Pre-Partum Trial #2 (75/0/100 g/day in wk −3..−1/+1..+4/+5..+8), multiparious cows, week +5): 104^ab lbs/day | Milk Production (4.0% fat basis) (Pre-Partum Trial #2 (75/0/100 g/day in wk −3..−1/+1..+4/+5..+8), multiparious cows, week +6): 102 lbs/day | Milk Production (4.0% fat basis) (Pre-Partum Trial #2 (75/0/100 g/day in wk −3..−1/+1..+4/+5..+8), multiparious cows, week +7): 102 lbs/day | Milk Production (4.0% fat basis) (Pre-Partum Trial #2 (75/0/100 g/day in wk −3..−1/+1..+4/+5..+8), multiparious cows, week +8): 99.5^ab lbs/day | Milk Production (4.0% fat basis) (Pre-Partum Trial #2 (75/0/100 g/day in wk −3..−1/+1..+4/+5..+8), multiparious cows, weeks +1 through +4): 94.4 lbs/day | Milk Production (4.0% fat basis) (Pre-Partum Trial #2 (75/0/100 g/day in wk −3..−1/+1..+4/+5..+8), multiparious cows, weeks +1 through +8): 98 lbs/day | Milk Production (4.0% fat basis) (Pre-Partum Trial #2 (75/0/100 g/day in wk −3..−1/+1..+4/+5..+8), multiparious cows, weeks +5 through +8): 102 lbs/day | Milk Production (4.0% fat basis) (Pre/Post Trial #1 (150/125/100 g/day in wk −3..−1/+1..+4/+5..+8), multiparious cows, week +1): 82.1^ab lbs/day | Milk Production (4.0% fat basis) (Pre/Post Trial #1 (150/125/100 g/day in wk −3..−1/+1..+4/+5..+8), multiparious cows, week +1, two-trial comparison with Control Trial #2 (Table 23)): 82.4 lbs/day | Milk Production (4.0% fat basis) (Pre/Post Trial #1 (150/125/100 g/day in wk −3..−1/+1..+4/+5..+8), multiparious cows, week +2): 100 lbs/day | Milk Production (4.0% fat basis) (Pre/Post Trial #1 (150/125/100 g/day in wk −3..−1/+1..+4/+5..+8), multiparious cows, week +2, two-trial comparison with Control Trial #2 (Table 23)): 99.7 lbs/day | Milk Production (4.0% fat basis) (Pre/Post Trial #1 (150/125/100 g/day in wk −3..−1/+1..+4/+5..+8), multiparious cows, week +3): 107 lbs/day | Milk Production (4.0% fat basis) (Pre/Post Trial #1 (150/125/100 g/day in wk −3..−1/+1..+4/+5..+8), multiparious cows, week +3, two-trial comparison with Control Trial #2 (Table 23)): 107 lbs/day | Milk Production (4.0% fat basis) (Pre/Post Trial #1 (150/125/100 g/day in wk −3..−1/+1..+4/+5..+8), multiparious cows, week +4): 109 lbs/day | Milk Production (4.0% fat basis) (Pre/Post Trial #1 (150/125/100 g/day in wk −3..−1/+1..+4/+5..+8), multiparious cows, week +4, two-trial comparison with Control Trial #2 (Table 23)): 109 lbs/day | Milk Production (4.0% fat basis) (Pre/Post Trial #1 (150/125/100 g/day in wk −3..−1/+1..+4/+5..+8), multiparious cows, week +5): 108^ab lbs/day | Milk Production (4.0% fat basis) (Pre/Post Trial #1 (150/125/100 g/day in wk −3..−1/+1..+4/+5..+8), multiparious cows, week +5, two-trial comparison with Control Trial #2 (Table 23)): 108 lbs/day | Milk Production (4.0% fat basis) (Pre/Post Trial #1 (150/125/100 g/day in wk −3..−1/+1..+4/+5..+8), multiparious cows, week +6): 109 lbs/day | Milk Production (4.0% fat basis) (Pre/Post Trial #1 (150/125/100 g/day in wk −3..−1/+1..+4/+5..+8), multiparious cows, week +6, two-trial comparison with Control Trial #2 (Table 23)): 109 lbs/day | Milk Production (4.0% fat basis) (Pre/Post Trial #1 (150/125/100 g/day in wk −3..−1/+1..+4/+5..+8), multiparious cows, week +7): 103 lbs/day | Milk Production (4.0% fat basis) (Pre/Post Trial #1 (150/125/100 g/day in wk −3..−1/+1..+4/+5..+8), multiparious cows, week +7, two-trial comparison with Control Trial #2 (Table 23)): 103 lbs/day | Milk Production (4.0% fat basis) (Pre/Post Trial #1 (150/125/100 g/day in wk −3..−1/+1..+4/+5..+8), multiparious cows, week +8): 108.7^b lbs/day | Milk Production (4.0% fat basis) (Pre/Post Trial #1 (150/125/100 g/day in wk −3..−1/+1..+4/+5..+8), multiparious cows, week +8, two-trial comparison with Control Trial #2 (Table 23)): 109 lbs/day | Milk Production (4.0% fat basis) (Pre/Post Trial #1 (150/125/100 g/day in wk −3..−1/+1..+4/+5..+8), multiparious cows, weeks +1 through +4): 99.5 lbs/day | Milk Production (4.0% fat basis) (Pre/Post Trial #1 (150/125/100 g/day in wk −3..−1/+1..+4/+5..+8), multiparious cows, weeks +1 through +4, two-trial comparison with Control Trial #2 (Table 23)): 99.7 lbs/day | Milk Production (4.0% fat basis) (Pre/Post Trial #1 (150/125/100 g/day in wk −3..−1/+1..+4/+5..+8), multiparious cows, weeks +1 through +8): 103 lbs/day | Milk Production (4.0% fat basis) (Pre/Post Trial #1 (150/125/100 g/day in wk −3..−1/+1..+4/+5..+8), multiparious cows, weeks +1 through +8, two-trial comparison with Control Trial #2 (Table 23)): 103 lbs/day | Milk Production (4.0% fat basis) (Pre/Post Trial #1 (150/125/100 g/day in wk −3..−1/+1..+4/+5..+8), multiparious cows, weeks +5 through +8): 107 lbs/day | Milk Production (4.0% fat basis) (Pre/Post Trial #1 (150/125/100 g/day in wk −3..−1/+1..+4/+5..+8), multiparious cows, weeks +5 through +8, two-trial comparison with Control Trial #2 (Table 23)): 107 lbs/day | greater production of 4% fat-corrected milk (Pre/Post Trial #1 (150/125/100 g/day) versus Control Trial #2, multiparious cows, week +8): 13.2% | increase in production of 4% fat-corrected milk (Pre/Post Trial #1 (150/125/100 g/day) versus Control Trial #2, multiparious cows, weeks +5 through +8 (Table 23)): 8.1% | greater rate of 4% fat-corrected milk production (Pre/Post Trial #1 (150/125/100 g/day) versus Pre/Post Trial #2 (75/75/100 g/day), multiparious cows, week +8): 15.1% | Milk Production (4.0% fat basis) (Pre/Post Trial #2 (75/75/100 g/day in wk −3..−1/+1..+4/+5..+8), multiparious cows, week +1): 88.6^b lbs/day | Milk Production (4.0% fat basis) (Pre/Post Trial #2 (75/75/100 g/day in wk −3..−1/+1..+4/+5..+8), multiparious cows, week +2): 103 lbs/day | Milk Production (4.0% fat basis) (Pre/Post Trial #2 (75/75/100 g/day in wk −3..−1/+1..+4/+5..+8), multiparious cows, week +3): 106 lbs/day | Milk Production (4.0% fat basis) (Pre/Post Trial #2 (75/75/100 g/day in wk −3..−1/+1..+4/+5..+8), multiparious cows, week +4): 105 lbs/day | Milk Production (4.0% fat basis) (Pre/Post Trial #2 (75/75/100 g/day in wk −3..−1/+1..+4/+5..+8), multiparious cows, week +5): 111^b lbs/day | Milk Production (4.0% fat basis) (Pre/Post Trial #2 (75/75/100 g/day in wk −3..−1/+1..+4/+5..+8), multiparious cows, week +6): 104 lbs/day | Milk Production (4.0% fat basis) (Pre/Post Trial #2 (75/75/100 g/day in wk −3..−1/+1..+4/+5..+8), multiparious cows, week +7): 101 lbs/day | Milk Production (4.0% fat basis) (Pre/Post Trial #2 (75/75/100 g/day in wk −3..−1/+1..+4/+5..+8), multiparious cows, week +8): 94.4^a lbs/day | Milk Production (4.0% fat basis) (Pre/Post Trial #2 (75/75/100 g/day in wk −3..−1/+1..+4/+5..+8), multiparious cows, weeks +1 through +4): 100.6 lbs/day | Milk Production (4.0% fat basis) (Pre/Post Trial #2 (75/75/100 g/day in wk −3..−1/+1..+4/+5..+8), multiparious cows, weeks +1 through +8): 101 lbs/day | Milk Production (4.0% fat basis) (Pre/Post Trial #2 (75/75/100 g/day in wk −3..−1/+1..+4/+5..+8), multiparious cows, weeks +5 through +8): 102 lbs/day | greater production of 4% fat-corrected milk (Pre/Post Trial #2 (75/75/100 g/day) versus Control Trial #2, multiparious cows, week +5): 12.1% | greater rate of 4% fat-corrected milk production (Pre/Post Trial #2 (75/75/100 g/day) versus Pre-Partum Trial #2 (75/0/100 g/day), multiparious cows, week +1): 24.6%

From patent US9179694B2, “Method and composition for enhancing milk production and milk component concentrations” (PURINA ANIMAL NUTRITION LLC, priority 2003, dated 2015)
